Measurements from ChEMBL document CHEMBL1158130, “Cembrane diterpenes from the gorgonian Lophogorgia peruana” (2006).
Calls of active or inactive are those of the source. The rule behind the calls is not given here.

Assays:
HT-29 [1] = assay: Growth inhibition of human HT-29 cells by sulforhodamine B assay; format: functional; settings: for CC50: read-out: LC50 (the source's name)
A549 [2] = assay: Growth inhibition of human A549 cells by sulforhodamine B assay; format: functional
MDA-MB-231 [3] = assay: Growth inhibition of human MDA-MB-231 cells by sulforhodamine B assay; format: functional
MDA-MB-231 [4] = assay: Growth inhibition of human MDA-MB-231 cells up to 25 uM by sulforhodamine B assay; format: functional, cell-based
A549 [5] = assay: Growth inhibition of human A549 cells up to 25 uM by sulforhodamine B assay; format: functional, cell-based
HT-29 [6] = assay: Growth inhibition of human HT-29 cells up to 25 uM by sulforhodamine B assay; format: functional, cell-based

SMILES	GI50 (HT-29 [1]) [µM]	GI50 (A549 [2]) [µM]	TGI (A549 [2]) [µM]	GI50 (MDA-MB-231 [3]) [µM]	TGI (HT-29 [1]) [µM]	CC50 (HT-29 [1]) [µM]	TGI (MDA-MB-231 [3]) [µM]	LC50 (50% lethal concentration) (MDA-MB-231 [3]) [µM]	Activity (MDA-MB-231 [4])	Activity (A549 [5])	Activity (HT-29 [6])	CC50 (A549 [2]; read-out: LC50 (the source's name)) [µM]
CC(=O)OCC1([C@H]2CC3=C(C=O)C=C(O3)[C@H]3O[C@]3(C)C[C@@H]3OC(=O)[C@]4(O[C@@H]34)[C@H](OC(C)=O)C2)CO1 (stereo not given in full)	8.2	5.1	6.9	5.1	–	–	–	–	–	–	–	–
C=C(C)[C@H]1CC2=C(C=O)C=C(O2)[C@H](O)[C@](C)(O)C[C@@H]2OC(=O)[C@]3(O[C@@H]23)[C@H](OC(C)=O)C1 [LOPHODIOL B]	14.7	–	–	–	–	–	–	–	–	–	–	–
C=C(C)[C@H]1CC2=C(C=O)C=C(O2)[C@H]2O[C@@]2(C)C[C@@H]2OC(=O)[C@]3(O[C@@H]23)[C@H](OC(C)=O)C1	5	5.3	8.4	4.8	6	8.4	6.2	–	–	–	–	–
CC(=O)O[C@@H]1C[C@@H](C2(C)CO2)CC2=C(C=O)C=C(O2)[C@H]2O[C@]2(C)C[C@@H]2OC(=O)[C@]13O[C@@H]23 (stereo not given in full)	4.6	6	9.7	5.8	6.2	9.2	–	–	–	–	–	–
C=C(COC(C)=O)[C@H]1CC2=C(C=O)C=C(O2)[C@H]2O[C@]2(C)C[C@@H]2OC(=O)[C@]3(O[C@@H]23)[C@H](OC(C)=O)C1	–	17.9	–	14.5	–	–	–	–	–	–	–	–
C=C(C)[C@@H]1CCC2=C[C@H](C[C@@]3(C)O[C@@H]3C(=O)/C=C(\C)C(=O)C1)OC2=O [ISOEPOXYLOPHODIONE]	4.1	2.9	5.5	2.7	4.4	4.9	3.2	4.1	–	–	–	–
C=C(C)[C@H]1CC2=C(C=O)C=C(O2)[C@@H](O)[C@@](C)(O)C[C@@H]2OC(=O)[C@]3(O[C@@H]23)[C@H](OC(C)=O)C1	–	–	–	–	–	–	–	–	inactive	inactive	inactive	–
C=C(C)[C@H]1CC2=C(C=O)C=C(O2)[C@H](O)[C@@](C)(O)C[C@@H]2OC(=O)[C@]3(O[C@@H]23)[C@H](OC(C)=O)C1 [7-EPI-LOPHODIOL A]	2.8	3.9	–	3.2	4.8	–	4.6	8.5	–	–	–	–
C=C(C)[C@@H]1CC2=C(C=O)C=C(O2)[C@@H]2O[C@@]2(C)C[C@H]2OC(=O)[C@@]3(O[C@H]23)[C@@H](OC(C)=O)C1	–	–	–	–	–	–	–	–	inactive	inactive	inactive	–
C=C(C)[C@@H]1CC[C@]2(C)O[C@H]2CC[C@H](C)/C=C/C=C(/C)C(=O)C1	–	–	–	–	–	–	–	–	inactive	inactive	inactive	–
C=C(C)[C@H]1CC2=C(C=O)C=C(O2)[C@H](OC(C)=O)[C@@](C)(OC(C)=O)C[C@@H]2OC(=O)[C@]3(O[C@@H]23)[C@H](OC(C)=O)C1 [7-EPI-7,8-DI-O-ACETYLLOPHODIOL A]	6.2	3.3	3.5	3.7	6.6	6.9	–	–	–	–	–	3.9
